From patent publication US11993574B2, “Pyrazole and imidazole compounds for inhibition of IL-17 and RORgamma” (REATA PHARMACEUTICALS, INC., priority 2018, dated 2024)

Assays:
Type in all cases: cell-based
[1] = tested on: Nrf2 transcription factor; experiment: AREc32 luciferase reporter assay; details: Homo sapiens; AREc32 cells, 19 hours; concentration required to increase GST ARE luciferase reporter activity by 2-fold; read-out: NRF2 ARE 2-Fold (EC2×)
Method in brief: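 AREc32 cells (MCF-7 with firefly luciferase under eight rat GSTA2 ARE copies) treated 19 h with compound (0.4-200 nM or 3.9-2000 nM) in triplicate. Luminescence normalized to DMSO as fold-induction, capped at 50-fold. EC2× = concentration giving 2-fold reporter increase, interpolated from variable-slope fit.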

[2] = molecular target: T1, Human RAR-related Orphan Receptor Gamma (RORγ) (Homo sapiens, UniProt P51449); experiment: RORγ assay (GAL4-RORγ hybrid luciferase reporter, Indigo Biosciences); details: inverse-agonist activity, GAL4-RORγ reporter cells, 23 hours
T1 sequence (P51449 269-508 limits assumed): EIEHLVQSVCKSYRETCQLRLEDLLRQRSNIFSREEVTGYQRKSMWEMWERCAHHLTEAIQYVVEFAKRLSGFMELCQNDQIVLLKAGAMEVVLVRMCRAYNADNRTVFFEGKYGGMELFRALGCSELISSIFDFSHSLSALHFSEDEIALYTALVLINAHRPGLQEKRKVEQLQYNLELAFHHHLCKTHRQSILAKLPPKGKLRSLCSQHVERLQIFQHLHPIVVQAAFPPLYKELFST
Method in brief: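 […]engineered human reporter cell line expressing GAL4-DBD/RORγ-LBD hybrid with GAL4-UAS luciferase; constitutive activity measured as inverse agonism. Cells treated with compound (7.8-2000 nM) for 23 h at 37 °C; luminescence normalized to DMSO, IC50 by variable-slope fit, with parallel viability readout to flag non-specific inhibition.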

IL-17A = experiment: IL-17 release from differentiated primary human T-cells (IL-17A HTRF assay); details: primary human CD4+ T cells differentiated into Th17 cells, 45-hour incubation, IL-17A in supernatant; read-out: hIL17 IC50
Method in brief: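 Primary human CD4+ T cells (~2×10^5/well) given compound (2–500 or 4–1000 nM, 0.1% DMSO), CD3/CD28-activated and Th17-differentiated (TGF-β, IL-6, IL-23, IL-1β) for 45 h at 37° C. Supernatant IL-17A by HTRF against standard curve, normalized to vehicle; IC50 by variable-slope regression, with parallel CyQuant viability.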

Structure (SMILES) | EC (2-fold) [1] | IC50 [2] | IC50 (IL-17A)
COc1ccc(-n2nc3c(c2-c2ccccc2)CC[C@@H]2[C@@H](C)C(=O)C(C#N)=C[C@@]32C)cc1 [T116] | 0.483 µM | 0.08 µM | 0.191 µM
C[C@H]1C(=O)C(C#N)=C[C@@]2(C)c3nn(-c4ccc(Cl)c(Cl)c4)c(-c4ccccc4)c3CC[C@H]12 [T117] | 0.834 µM | 0.114 µM | 0.107 µM
Cc1ccc(-n2nc3c(c2-c2ccccc2)CC[C@@H]2[C@@H](C)C(=O)C(C#N)=C[C@@]32C)cc1 [T118] | 0.635 µM | 0.122 µM | 0.158 µM
C[C@H]1C(=O)C(C#N)=C[C@@]2(C)c3nn(-c4ccc(-c5ccccc5)cc4)c(CC4CCC4)c3CC[C@H]12 [T119] | 1.16 µM | 0.158 µM | 0.043 µM
C[C@H]1C(=O)C(C#N)=C[C@@]2(C)c3nn(-c4ccc(-c5ccccc5)cc4)c(-c4ccncn4)c3CC[C@H]12 [T120] | 0.908 µM | 0.092 µM | 0.054 µM
C[C@H]1C(=O)C(C#N)=C[C@@]2(C)c3nn(-c4cccc(-c5ccccc5)c4)c(-c4ccncn4)c3CC[C@H]12 [T121] | 1.07 µM | 0.242 µM | 0.085 µM
C[C@H]1C(=O)C(C#N)=C[C@@]2(C)c3nn(-c4ccncc4)c(-c4ccc(F)cc4)c3CC[C@H]12 [T122] | 0.441 µM | 0.097 µM | 0.246 µM
C[C@H]1C(=O)C(C#N)=C[C@@]2(C)c3nn(-c4ccc(-c5ccccc5)cc4)c(-c4ccccc4F)c3CC[C@H]12 [T123] | 1.18 µM | 0.139 µM | 0.05 µM
C[C@H]1C(=O)C(C#N)=C[C@@]2(C)c3nn(-c4ccc(-c5ccccc5)cc4)c(-c4ccncc4)c3CC[C@H]12 [T124] | 0.651 µM | 0.123 µM | 0.077 µM
C[C@H]1C(=O)C(C#N)=C[C@@]2(C)c3nn(-c4ccc(-c5ccccc5)cc4)c(-c4cccnc4)c3CC[C@H]12 [T125] | 0.877 µM | 0.137 µM | 0.086 µM
C[C@H]1C(=O)C(C#N)=C[C@@]2(C)c3nn(-c4cccc(-c5ccccc5)c4)c(-c4cccc(F)c4)c3CC[C@H]12 [T126] | 1.12 µM | 0.253 µM | 0.021 µM
C[C@H]1C(=O)C(C#N)=C[C@@]2(C)c3nc(-c4ccc(-c5ccccc5)cc4)n(-c4cccc(F)c4)c3CC[C@H]12 [T127] | 1.12 µM | 0.267 µM | 0.062 µM
C[C@H]1C(=O)C(C#N)=C[C@@]2(C)c3nc(-c4cccc(-c5ccccc5)c4)n(-c4cccc(F)c4)c3CC[C@H]12 [T128] | 0.818 µM | 0.158 µM | 0.117 µM
CC(C)c1ccc(-c2nc3c(n2-c2cccc(F)c2)CC[C@@H]2[C@@H](C)C(=O)C(C#N)=C[C@@]32C)cc1 [T129] | 1.29 µM | 0.214 µM | 0.073 µM
C[C@H]1C(=O)C(C#N)=C[C@@]2(C)c3nc(C4CCOCC4)n(-c4cccc(F)c4)c3CC[C@H]12 [T130] | 1.78 µM | 0.345 µM | 0.273 µM
CC(C)c1ncc(-c2nc3c(n2-c2cccc(F)c2)CC[C@@H]2[C@@H](C)C(=O)C(C#N)=C[C@@]32C)cn1 [T131] | 0.767 µM | 0.17 µM | 0.138 µM
C[C@H]1C(=O)C(C#N)=C[C@@]2(C)c3nc(-c4ccc(N(C)C)cc4)n(-c4cccc(F)c4)c3CC[C@H]12 [T132] | 1.02 µM | 0.11 µM | 0.114 µM
Cc1nc2c(n1-c1cccc(F)c1)CC[C@@H]1[C@@H](C)C(=O)C(C#N)=C[C@@]21C [T133] | 0.767 µM | 0.225 µM | 0.247 µM
C[C@H]1C(=O)C(C#N)=C[C@@]2(C)c3nc(-c4ccccc4)n(-c4cccc(F)c4)c3CC[C@H]12 [T134] | 0.832 µM | 0.143 µM | 0.183 µM
C[C@H]1C(=O)C(C#N)=C[C@@]2(C)c3nc(-c4ccnc5ccccc45)n(-c4cccc(F)c4)c3CC[C@H]12 [T135] | 0.896 µM | 0.141 µM | 0.16 µM
C[C@H]1C(=O)C(C#N)=C[C@@]2(C)c3nc(-c4cccc5ncccc45)n(-c4cccc(F)c4)c3CC[C@H]12 [T136] | 0.753 µM | 0.189 µM | 0.144 µM

Structure (SMILES) | EC (2-fold) [1] | IC50 [2] | IC50 (IL-17A)
C[C@H]1C(=O)C(C#N)=C[C@@]2(C)c3nc(-c4cnc5ccccc5c4)n(-c4cccc(F)c4)c3CC[C@H]12 [T137] | 0.618 µM | 0.093 µM | 0.24 µM
CC(C)c1cccc(-c2nc3c(n2-c2cccc(F)c2)CC[C@@H]2[C@@H](C)C(=O)C(C#N)=C[C@@]32C)c1 [T138] | 0.941 µM | 0.284 µM | 0.201 µM
C[C@H]1C(=O)C(C#N)=C[C@@]2(C)c3nc(-c4ccnc(N5CCOCC5)c4)n(-c4cccc(F)c4)c3CC[C@H]12 [T139] | 0.66 µM | 0.112 µM | 0.128 µM
C[C@H]1C(=O)C(C#N)=C[C@@]2(C)c3nc(Cc4ccccc4)n(-c4cccc(F)c4)c3CC[C@H]12 [T140] | 1.27 µM | 0.113 µM | 0.288 µM
C[C@H]1C(=O)C(C#N)=C[C@@]2(C)c3nc(-c4ccnc(C(F)(F)F)c4)n(-c4cccc(F)c4)c3CC[C@H]12 [T141] | 0.892 µM | 0.146 µM | 0.194 µM
C[C@H]1C(=O)C(C#N)=C[C@@]2(C)c3nc(-c4ccc(C5CC5)nc4)n(-c4cccc(F)c4)c3CC[C@H]12 [T142] | 0.861 µM | 0.076 µM | 0.156 µM
C[C@H]1C(=O)C(C#N)=C[C@@]2(C)c3nc(-c4cccc(N5CCOCC5)c4)n(-c4cccc(F)c4)c3CC[C@H]12 [T143] | 0.643 µM | 0.095 µM | 0.132 µM
C[C@H]1C(=O)C(C#N)=C[C@@]2(C)c3nc(-c4ccnc(C5CC5)c4)n(-c4cccc(F)c4)c3CC[C@H]12 [T144] | 1.12 µM | 0.173 µM | 0.207 µM
C[C@H]1C(=O)C(C#N)=C[C@@]2(C)c3nc(-c4cccc(Br)c4)n(-c4cccc(F)c4)c3CC[C@H]12 [T145] | 0.755 µM | 0.092 µM | 0.087 µM
C[C@H]1C(=O)C(C#N)=C[C@@]2(C)c3nc(-c4cccc(-c5ccncc5)c4)n(-c4cccc(F)c4)c3CC[C@H]12 [T146] | 0.423 µM | 0.106 µM | 0.07 µM
C[C@H]1C(=O)C(C#N)=C[C@@]2(C)c3nc(-c4cccc(-c5cncnc5)c4)n(-c4cccc(F)c4)c3CC[C@H]12 [T147] | 0.515 µM | 0.108 µM | 0.185 µM
C[C@H]1C(=O)C(C#N)=C[C@@]2(C)c3nc(-c4cccc(-c5cncc(F)c5)c4)n(-c4cccc(F)c4)c3CC[C@H]12 [T148] | 0.566 µM | 0.149 µM | 0.086 µM
C[C@H]1C(=O)C(C#N)=C[C@@]2(C)c3nc(-c4cccc(-c5cnn(C)c5)c4)n(-c4cccc(F)c4)c3CC[C@H]12 [T149] | 0.687 µM | 0.159 µM | 0.129 µM
Cc1noc(C)c1-c1cccc(-c2nc3c(n2-c2cccc(F)c2)CC[C@@H]2[C@@H](C)C(=O)C(C#N)=C[C@@]32C)c1 [T150] | 0.488 µM | 0.135 µM | 0.104 µM
C[C@H]1C(=O)C(C#N)=C[C@@]2(C)c3nc(-c4cccc(-c5ccnn5C)c4)n(-c4cccc(F)c4)c3CC[C@H]12 [T151] | 0.749 µM | 0.234 µM | 0.154 µM
C[C@H]1C(=O)C(C#N)=C[C@@]2(C)c3nc(-c4ccc(-c5ccccc5)cc4)n(-c4cccnc4)c3CC[C@H]12 [T152] | 1.16 µM | 0.188 µM | 0.131 µM
CC(C)c1ccc(-c2nc3c(n2-c2cccnc2)CC[C@@H]2[C@@H](C)C(=O)C(C#N)=C[C@@]32C)cc1 [T153] | 1.25 µM | 0.334 µM | 0.108 µM
C[C@H]1C(=O)C(C#N)=C[C@@]2(C)c3nc(-c4ccnc5ccccc45)n(-c4cccnc4)c3CC[C@H]12 [T154] | 1.97 µM | 0.572 µM | 0.415 µM
C[C@H]1C(=O)C(C#N)=C[C@@]2(C)c3nc(-c4cccc(-c5ccccc5)c4)n(-c4cccnc4)c3CC[C@H]12 [T155] | 0.738 µM | 0.201 µM | 0.161 µM
CC(C)c1ccc(-c2nc3c(n2-c2cnn(C)c2)CC[C@@H]2[C@@H](C)C(=O)C(C#N)=C[C@@]32C)cc1 [T156] | 1.16 µM | 0.117 µM | 0.128 µM
C[C@H]1C(=O)C(C#N)=C[C@@]2(C)c3nc(-c4cccc(Cl)c4)n(-c4cnn(C)c4)c3CC[C@H]12 [T157] | 1.28 µM | 0.103 µM | 0.322 µM
